Measured values taken from patent publication US5731293A, “Esculetin derivatives, method for manufacture thereof, and pharmaceutical composition” (Kureha Chemical Industry Co., Ltd., priority 1994, dated 1998).

Assays:
[1] = test system: Crj: CD-1 (ICR) male mice; assay: Acute toxicity, oral, male mice, 7-day observation; format: in vivo, mouse; conditions: 1000 and 2000 mg/kg, 7 days
Description: (§1) The toxicity of the esculetin derivatives of the present invention was examined. Typical examples of the present derivatives were administered orally at a dose of 2000 mg/kg (body weight) to male mice and male rats which were then observed for seven days. No deaths and no remarkable toxicity were observed. The esculetin derivatives of the present invention are extremely safe compounds (see Example 13).
(§2) The acute toxicity of the esculetin derivatives of the present invention was examined using Crj: CD-1 (ICR) male mice (6 weeks old) and Wistar male rats (6 weeks old). After 6-(β-2-acetamido-2-deoxy-D-glucopyranosyloxy)-7-(N,N-dimethylcarbamoyloxy)coumarin [Ib-2] […] In the experiments as above, two animals were used for each group.

Wistar male rats = assay: Acute toxicity, oral, male rats, 7-day observation; format: in vivo, rat; conditions: 1000 and 2000 mg/kg, 7 days
Description: as §1, §2

[2] = test system: interstitial collagenase (MMP-1); assay: Inhibition of production of interstitial collagenase (MMP-1) in rabbit cartilage organ culture system, IL-1α stimulated; format: cell-based, rabbit (New Zealand White); conditions: IL-1α 100 units/ml, 48 hours; rabbit articular cartilage; values only in FIG. 1
Description: After the articular cartilages were collected from the shoulder and knee of rabbits (New Zealand White Rabbits, male, 6 weeks old) and divided into small pieces, cultivation experiment was started using Dulbecco's MEM medium containing 0.2% lactoalbumin. The compounds to be tested were dissolved in dimethylsulfoxide (DMSO) and then added to the medium. The concentration of DMSO was 0.25% by volume to the medium. After 2 hours from addition of the compounds to be tested, 100 units/ml of interleukin-1α (hereinafter referred to as the IL-1α) was added as a stimulant, and the cultivation was performed for 48 hours. Thereafter, the activity of MMP-1 in the supernatant of the culture was measured. Collageno kit (CLN-100) (Cosmo Bio Co., Ltd.) was used for the measurement of MMP-1.
The results are shown as the value of the mean value±standard error (n=4 per a group). As the esculetin derivative of the present invention, 6-(β-2-acetamido-2-deoxy-D-glucopyranosyloxy)-7-(N,N-dimethylcarbamoyloxy)coumarin [Ib-2] was used.
The abscissa is the percentage of the amounts of MMP-1 produced by adding both IL-1α and the compound to be tested as compared to the amounts of MMP-1 produced by the addition of IL-1α alone. When neither IL-1α nor the compound to be tested were added as a control test, MMP-1 was hardly produced.

[3] = Pharmacokinetic analysis in mouse femoral head cartilage (FHC) model; format: in vivo, BALB/C female mice implanted with FHC of S. D. male rats; conditions: oral, 534 mg/kg [Ib-2] vs esculetin 187 mg/kg; values only in FIG. 2
Description: The model mice were prepared in accordance with the method described in D. A. Willoughby et al., Agents Actions, vol. 38, pp. 126 to 134, 1993.
The left and right femoral head cartilages (FHC) were sterilely excised from S. D. male rats in a clean bench. The excised FHC's were washed with a Ham F-12 culture medium containing antibiotics and the wet weight was measured. Then, the FHC's were wrapped in two cotton sheets (about 1 cm×1 cm) and cooled with ice in the culture medium for storage until implantation. The FHC's were implanted sterilely under the dorsal skin of BALB/C female mice whose dorsal regions were shaved. The incisions were stitched, and then completely sealed with surgical adhesive (Toa Gosei, Japan).
The above mouse FHC model were used to pharmacokinetically compare esculetin and the esculetin derivative [Ib-2] of the present invention. Esculetin (187 mg/kg) and an equimolar amount, i.e., 534 mg/kg, of the esculetin derivative [Ib-2] of the present invention were administered orally three days after the implantation of the FHC. The FHC's were periodically removed and digested with papain. Then, an amount of the compounds taken up in the FHC was analyzed by high performance liquid chromatography. In the above experiments, three mice were used for each group.

CC(=O)N[C@H]1[C@H](Oc2cc3ccc(=O)oc3cc2OC(=O)N(C)C)O[C@H](CO)[C@@H](O)[C@@H]1O [Ib-2, 6-(β-2-acetamido-2-deoxy-D-glucopyranosyloxy)-7-(N,N-dimethylcarbamoyloxy)coumarin]
deaths [1]: No deaths were observed | general state and body weight in comparison with the control group [1]: no change was observed | deaths (Wistar male rats): No deaths were observed | general state and body weight in comparison with the control group (Wistar male rats): no change was observed | amounts of MMP-1 released under IL-1α stimulated condition [2]: reduced the amounts of MMP-1 under IL-1α stimulated condition | amount of compound taken up and retained in the FHC [3]: taken up and retained in the FHC for a long time in a higher concentration as compared to esculetin
